Results from US20230149537A1, “VACCINES, ADJUVANTS, AND METHODS OF GENERATING AN IMMUNE RESPONSE” (priority 2020, published 2023).

How the values were obtained:
SARS-CoV-2 Spike [1] = tested on: SARS-CoV-2 Spike; set-up: species or system  mice; conditions: mouse, in vivo
T cell = tested on: T cell; set-up: species or system C57BL/6 mice; conditions: mouse, in vivo, ip
SARS-CoV-2 Spike [2] = tested on: SARS-CoV-2 Spike; set-up: species or system C57BL/6 mice; conditions: mouse, in vivo, ip

SMILES: CCCCCCCCCCCC(=O)CC(=O)N[C@H](COCCCCCCCCCC)COP(=O)([O-])OCCNC(=O)NCCOP(=O)([O-])OC[C@@H](COCC[C@@H](CCCCCCC)OC(=O)CCCCCCCCCCC)NC(=O)CC(=O)CCCCCCCCCCC.[Na+].[Na+] [Group E6020]
- IgG1 and IgG2 Ab binding titers (SARS-CoV-2 Spike [1]): increase in IgG2 production
- Th1-type T cell responses (T cell): significantly enhanced Th1-type T cell responses
- IgG profile (IgG2/IgG1) (SARS-CoV-2 Spike [2]): significant higher IgG2 than with Alum alone
